Laboratory results taken from patent publication US20230192700A1, “PYRAZOLOPYRAZINES ACTING ON CANCERS VIA INHIBITION OF CDK12” (Bayer Aktiengesellschaft, priority 2020, published 2023).
Like-named read-outs stand apart in the source and are kept apart here.

Key:
[1] = tested on: BRCA1 mRNA expression in MDA-MB-231 cells; assay: qRT-PCR assay: inhibition of BRCA1 mRNA expression in MDA-MB-231 cells; format: cell-based, human; details: 24 h exposure, BRCA1 mRNA normalised to GAPDH, median, read-out: RTqPCR-MDA-MB-231 IC50 [mol/l] BRCA1 (median)
Protocol: 3. qRT-PCR Assay: BRCA1, ATR, MCL1 in MDA-MB-231, CAL-120
Tissue cultured human MDA-MB-231 human breast cancer cells were plated in 500 microL per well at 200,000 cells/well in a 24 well microtiter plate. After 24 h, the cells were exposed continuously for 24 h to test substances (substances were added with Tecan HP D300 Dispenser). RNA was prepared using Qiagen RNeasy MiniKit (#74106), RNA was quantified using a NanoDrop Equipment, and 600 nano gamms of RNA was coverted to cDNA using a SuperScript VILO kit (Thermofisher #11755050) followed by qPCR amplification. BRCA1 and ATR gene expression was measured by RT-qPCR and normalised to GAPDH housekeeping gene expression. qPCR primer sets have been purchased from Thermo Fisher Scientific/Applied Biosystems: BRCA1, # Hs 01556193; ATR, #Hs 00992123; GAPDH, #Hs 03929097.

CDK9/CyclinT1 = target: T1, CDK9/CyclinT1 (Homo sapiens, UniProt P50750); assay: CDK9/CycT1 high ATP kinase assay (TR-FRET); format: biochemical; details: 2 mM ATP (high ATP); median; read-out: CDK9/CyclinT1, 2 mM ATP (high ATP) IC50 - [mol/l] (median)
T1 construct: Recombinant full-length His-tagged human CDK9 and CycT1; His-tag; purchased Life Technologies PV4131; host or cells: insect cells
T1 sequence (P50750 whole entry): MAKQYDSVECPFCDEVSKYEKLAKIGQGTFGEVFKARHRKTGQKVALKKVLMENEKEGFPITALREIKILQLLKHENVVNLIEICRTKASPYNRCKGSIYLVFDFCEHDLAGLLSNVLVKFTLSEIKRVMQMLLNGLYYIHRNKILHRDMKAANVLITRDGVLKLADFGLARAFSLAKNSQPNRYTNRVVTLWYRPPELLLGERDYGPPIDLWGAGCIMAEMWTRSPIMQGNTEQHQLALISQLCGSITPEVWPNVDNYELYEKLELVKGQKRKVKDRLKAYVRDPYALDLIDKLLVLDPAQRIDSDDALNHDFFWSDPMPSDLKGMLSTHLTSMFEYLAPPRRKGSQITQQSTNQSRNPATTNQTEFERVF
T1 sequence (O60563 whole entry partner): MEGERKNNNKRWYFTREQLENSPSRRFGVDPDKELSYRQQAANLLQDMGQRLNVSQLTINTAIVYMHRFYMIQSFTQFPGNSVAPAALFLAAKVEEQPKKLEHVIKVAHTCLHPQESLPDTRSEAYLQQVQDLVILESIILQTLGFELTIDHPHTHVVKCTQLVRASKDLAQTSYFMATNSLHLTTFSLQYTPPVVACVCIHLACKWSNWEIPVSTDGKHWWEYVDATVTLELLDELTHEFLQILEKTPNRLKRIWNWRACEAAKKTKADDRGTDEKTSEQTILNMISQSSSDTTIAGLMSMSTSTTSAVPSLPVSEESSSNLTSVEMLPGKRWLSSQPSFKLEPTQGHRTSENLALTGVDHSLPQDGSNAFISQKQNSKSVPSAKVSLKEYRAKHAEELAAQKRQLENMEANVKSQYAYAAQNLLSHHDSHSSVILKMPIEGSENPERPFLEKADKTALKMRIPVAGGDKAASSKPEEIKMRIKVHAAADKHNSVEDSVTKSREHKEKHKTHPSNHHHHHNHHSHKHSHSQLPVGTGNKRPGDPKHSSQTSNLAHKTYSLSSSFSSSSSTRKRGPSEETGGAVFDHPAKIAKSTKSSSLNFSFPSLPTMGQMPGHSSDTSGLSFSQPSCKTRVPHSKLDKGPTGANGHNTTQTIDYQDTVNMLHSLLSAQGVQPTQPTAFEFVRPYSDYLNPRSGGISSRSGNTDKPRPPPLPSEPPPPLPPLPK
Protocol: 2.5 CDK9/CycT1 High ATP Kinase Assay
CDK9/CycT1 -inhibitory activity of compounds of the present invention at a high ATP concentration after preincubation of enzyme and test compounds was quantified employing the CDK9/CycT1 TR-FRET assay as described in the following paragraphs.
Recombinant full-length His-tagged human CDK9 and CycT1, expressed in insect cells and purified by Ni-NTA affinity chromatography, were purchased from Life Technologies (Cat. No PV4131). As substrate for the kinase reaction biotinylated peptide biotin-Ttds-YISPLKSPYKISEG (C-terminus in amide form) was used which can be purchased e.g. form the company JERINI peptide technologies (Berlin, Germany).
For the assay 50 nanoL of a 100 fold concentrated solution of the test compound in DMSO was pipetted into either a black low volume 384 well microtiter plate or a black 1536 well microtiter plate (both Greiner Bio-One, Frickenhausen, Germany), 2 microL of a solution of CDK9/CycT1 in aqueous assay buffer [50 millimol/L Tris/HCl pH 8.0, 10 millimol/L MgCl2, 1.0 millimol/L dithiothreitol, 0.1 millimol/L sodium ortho-vanadate, 0.01% (v/v) Nonidet-P40 (Sigma)] were added and the mixture was incubated for 15 min at 22° C. to allow pre-binding of the test compounds to the enzyme before the start of the kinase reaction. Then the kinase reaction was started by the addition of 3 microL of a solution of adenosine-tri-phosphate (ATP, 3.3 millimol/L=>final conc. in the 5 microL assay volume is 2 millimol/L) and substrate (1.25 micromol/L =>final conc. in the 5 microL assay volume is 0.75 micromol/L) in assay buffer and the resulting mixture was incubated for a reaction time of 25 min at 22° C. The concentration of CDK9/CycT1 was adjusted depending of the activity of the enzyme lot and was chosen appropriate to have the assay in the linear range, typical concentrations were in the range of 0.5 microg/mL. The reaction was stopped by the addition of 3 microL of a solution of TR-FRET detection reagents (0.33 micromol/L streptavidine-XL665 [Cisbio Bioassays, Codolet, France] and 1.67 nanomol/L anti-RB(pSer807/pSer811)-antibody from BD Pharmingen [#558389] and 2 nanomol/L LANCE EU-W1024 labeled anti-mouse IgG antibody [Perkin-Elmer, product no. AD0077]) in an aqueous EDTA-solution (167 millimol/L EDTA, 0.2% (w/v) bovine serum albumin in 100 millimol/L HEPES pH 7.5).
The resulting mixture was incubated 1 h at 22° C. to allow the formation of complex between the phosphorylated biotinylated peptide and the detection reagents. Subsequently the amount of phosphorylated substrate was evaluated by measurement of the resonance energy transfer from the Eu-chelate to the streptavidine-XL. Therefore, the fluorescence emissions at 620 nm and 665 nm after excitation at 350 nm was measured in a TR-FRET reader, e.g. a Pherastar (BMG Labtechnologies, Offenburg, Germany) or a Viewlux (Perkin-Elmer). The ratio of the emissions at 665 nm and at […] was taken as the measure for the amount of phosphorylated substrate. The data were normalised (enzyme reaction without inhibitor=0% inhibition, all other assay components but no enzyme=100% inhibition).

IC50 (CDK9/CyclinT1)	SMILES	IC50 ([1]; Homo sapiens, MDA-MB-231, 24 h)	IC50 [1]
> 20000 nM	CC(C)(O)C1CC(n2nc(NCc3nc4ccccc4[nH]3)c3ncc(C4CC4)nc32)C1 (mixture of isomers) [Example 48, 2-[cis/trans-3-(3-{[(1H-benzimidazol-2-yl)methyl]amino}-6-cyclopropyl-1H-pyrazolo[3,4-b]pyrazin-1-yl)cyclobutyl]propan-2-ol]	39.5 nM	–
> 20000 nM	CN1CCCC(n2nc(NCc3nc4ccccc4[nH]3)c3ncc(C4CC4)nc32)CC1 (racemic) [Example 34, (±)-N-[(1H-benzimidazol-2-yl)methyl]-6-cyclopropyl-1-(1-methylazepan-4-yl)-1H-pyrazolo[3,4-b]pyrazin-3-amine]	22.5 nM	–
> 20000 nM	CN1CCC(n2nc(NCc3nc4ccccc4[nH]3)c3ncc(C4CC4)nc32)C1 (racemic) [Example 35, (±)-N-[(1H-benzimidazol-2-yl)methyl]-6-cyclopropyl-1-(1-methylpyrrolidin-3-yl)-1H-pyrazolo[3,4-b]pyrazin-3-amine]	30.2 nM	–
> 20000 nM	CC1CC(n2nc(NCc3nc4ccccc4[nH]3)c3ncc(C4CC4)nc32)CCN1C (racemic) [Example 41, (±)-cis/trans-N-[(1H-benzimidazol-2-yl)methyl]-6-cyclopropyl-1-(1,2-dimethylpiperidin-4-yl)-1H-pyrazolo[3,4-b]pyrazin-3-amine]	20.6 nM	–
> 20000 nM	CC1CC(n2nc(NCc3nc4ccccc4[nH]3)c3ncc(C4CC4)nc32)CCO1 (racemic) [Example 44, (±)-cis/trans-N-[(1H-benzimidazol-2-yl)methyl]-6-cyclopropyl-1-(2-methyloxan-4-yl)-1H-pyrazolo[3,4-b]pyrazin-3-amine]	24.2 nM	–
> 20000 nM	c1ccc2[nH]c(CNc3nn(C4CCOC4)c4nc(C5CC5)cnc34)nc2c1 (single isomer, unassigned) [Example 17, (+) or (−)-N-[(1H-benzimidazol-2-yl)methyl]-6-cyclopropyl-1-(oxolan-3-yl)-1H-pyrazolo[3,4-b]pyrazin-3-amine]	10.9 nM	–
> 20000 nM	c1ccc2[nH]c(CNc3nn(C4CCOC4)c4nc(C5CC5)cnc34)nc2c1 (single isomer, unassigned) [Example 18, (-) or (+) -N-[(1H-benzimidazol-2-yl)methyl]-6-cyclopropyl-1-[oxolan-3-yl]-1H-pyrazolo[3,4-b]pyrazin-3-amine]	–	> 10.7 nM
> 20000 nM	CN1CCCC(n2nc(NCc3nc4ccccc4[nH]3)c3ncc(C4CC4)nc32)CC1 (single isomer, unassigned) [Example 37, (+) or (−)-N-[(1H-benzimidazol-2-yl)methyl]-6-cyclopropyl-1-[(4R*)-1-methylazepan-4-yl]-1H-pyrazolo[3,4-b]pyrazin-3-amine]	11.3 nM	–
> 20000 nM	CN1CCCC(n2nc(NCc3nc4ccccc4[nH]3)c3ncc(C4CC4)nc32)CC1 (single isomer, unassigned) [Example 38, (−) or (+)-N-[(1H-benzimidazol-2-yl)methyl]-6-cyclopropyl-1-[(4R*)-1-methylazepan-4-yl]-1H-pyrazolo[3,4-b]pyrazin-3-amine]	–	21.8 nM
> 20000 nM	CN1CCC(n2nc(NCc3nc4ccccc4[nH]3)c3ncc(C4CC4)nc32)C1 (single isomer, unassigned) [Example 78, (+) or (−)-N-[(1H-benzimidazol-2-yl)methyl]-6-cyclopropyl-1-(1-methylpyrrolidin-3-yl)-1H-pyrazolo[3,4-b]pyrazin-3-amine]	15.6 nM	–
> 20000 nM	CN1CCC(n2nc(NCc3nc4ccccc4[nH]3)c3ncc(C4CC4)nc32)CC1 [Example 1, N-[(1H-benzimidazol-2-yl)methyl]-6-cyclopropyl-1-(1-methylpiperidin-4-yl)-1H-pyrazolo[3,4-b]pyrazin-3-amine]	13.7 nM	–

The remaining lines, values behind:

SMILES	IC50 (CDK9/CyclinT1)	IC50 ([1]; Homo sapiens, MDA-MB-231, 24 h)	IC50 [1]
COCCC(C)n1nc(NCc2nc3ccccc3[nH]2)c2ncc(C3CC3)nc21 (single isomer, unassigned; (+)) [Example 59, (+)-N-[(1H-benzimidazol-2-yl)methyl]-6-cyclopropyl-1-[4-methoxybutan-2-yl]-1H-pyrazolo[3,4-b]pyrazin-3-amine]	> 20000 nM	–	248 nM
COCCC(C)n1nc(NCc2nc3ccccc3[nH]2)c2ncc(C3CC3)nc21 (single isomer, unassigned; (-)) [Example 58, (−)-N-[(1H-benzimidazol-2-yl)methyl]-6-cyclopropyl-1-[4-methoxybutan-2-yl]-1H-pyrazolo[3,4-b]pyrazin-3-amine]	> 20000 nM	–	28.2 nM
COc1cccc2[nH]c(CNc3nn(C4CCN(C)CC4)c4nc(C5CC5)cnc34)nc12 [Example 2, 6-cyclopropyl-N-[(4-methoxy-1H-benzimidazol-2-yl)methyl]-1-(1-methylpiperidin-4-yl)-1H-pyrazolo[3,4-b]pyrazin-3-amine]	> 20000 nM	8.55 nM	–
CC(C)(O)Cn1nc(NCc2nc3ccccc3[nH]2)c2ncc(C3CC3)nc21 [Example 69, 1-(3-{[(1H-benzimidazol-2-yl)methyl]amino}-6-cyclopropyl-1H-pyrazolo[3,4-b]pyrazin-1-yl)-2-methylpropan-2-ol]	> 20000 nM	–	–
O[C@H]1C[C@H](Cn2nc(NCc3nc4ccccc4[nH]3)c3ncc(C4CC4)nc32)C1 [Example 70, trans-3-[(3-{[(1H-benzimidazol-2-yl)methyl]amino}-6-cyclopropyl-1H-pyrazolo[3,4-b]pyrazin-1-yl)methyl]cyclobutan-1-ol]	> 20000 nM	–	–
OC1(Cn2nc(NCc3nc4ccccc4[nH]3)c3ncc(C4CC4)nc32)CCC1 [Example 72, 1-[(3-{[(1H-benzimidazol-2-yl)methyl]amino}-6-cyclopropyl-1H-pyrazolo[3,4-b]pyrazin-1-yl)methyl]cyclobutan-1-ol]	> 20000 nM	–	–
OC1(Cn2nc(NCc3nc4ccccc4[nH]3)c3ncc(C4CC4)nc32)CCCC1 [Example 73, 1-[(3-{[(1H-benzimidazol-2-yl)methyl]amino}-6-cyclopropyl-1H-pyrazolo[3,4-b]pyrazin-1-yl)methyl]cyclopentan-1-ol]	> 20000 nM	–	–
OCC1(Cn2nc(NCc3nc4ccccc4[nH]3)c3ncc(C4CC4)nc32)CCC1 [Example 74, {1-[(3-{[(1H-benzimidazol-2-yl)methyl]amino}-6-cyclopropyl-1H-pyrazolo[3,4-b]pyrazin-1-yl)methyl]cyclobutyl}methanol]	> 20000 nM	–	–
c1ccc2[nH]c(CNc3nn(CC4CCC4)c4nc(C5CC5)cnc34)nc2c1 [Example 75, N-[(1H-benzimidazol-2-yl)methyl]-1-(cyclobutylmethyl)-6-cyclopropyl-1H-pyrazolo[3,4-b]pyrazin-3-amine]	> 20000 nM	–	–
Cc1cnc2c(NCc3nc4ccccc4[nH]3)nn(C3CCN(C)CC3)c2n1 [Example 77, N-[(1H-benzimidazol-2-yl)methyl]-6-methyl-1-(1-methylpiperidin-4-yl)-1H-pyrazolo[3,4-b]pyrazin-3-amine]	> 20000 nM	–	–
